Tested on: MCF-7 breast cancer cells
Assay: Microarray gene expression analysis (Agilent whole human genome 4 x 44K; compound vs DMSO, LIMMA log2 fold change)
Assay type: cell-based
Details: Apoptosis genes

Oc1cccc(-c2nc(N3CCOCC3)c3oc4ncccc4c3n2)c1 [PI-103]
PML log2FC (Gene 5371): -0.410 | POLR2G log2FC (Gene 5436): 0.401 | POU3F3 log2FC (Gene 5455): -0.338 | POU4F1 log2FC (Gene 5457): -0.488 | POU4F3 log2FC (Gene 5459): -0.095 | PPARD log2FC (Gene 5467): -0.189 | PPARG log2FC (Gene 5468): -0.320 | PPID log2FC (Gene 5481): -0.224 | PPP1CA log2FC (Gene 5499): -0.185 | PPP2CA log2FC (Gene 5515): -0.522 | PPP2CB log2FC (Gene 5516): -0.272 | PPP2R1B log2FC (Gene 5519): -0.663 | PPP2R2B log2FC (Gene 5521): 0.085 | PPP2R4 log2FC (Gene 5524): -0.318 | PPP2R5C log2FC (Gene 5527): 0.778 | PPP3CC log2FC (Gene 5533): 0.049 | PPP3R1 log2FC (Gene 5534): -0.344 | PPT1 log2FC (Gene 5538): 0.180 | PRF1 log2FC (Gene 5551): 0.035 | PRKAA1 log2FC (Gene 5562): 0.297 | PRKAA2 log2FC (Gene 5563): 0.067 | PRKCA log2FC (Gene 5578): -0.157 | PRKCD log2FC (Gene 5580): 0.117 | PRKCE log2FC (Gene 5581): -0.00329 | PRKCG log2FC (Gene 5582): 0.076 | PRKCH log2FC (Gene 5583): -0.184 | PRKCI log2FC (Gene 5584): 0.477 | PKN2 log2FC (Gene 5586): 0.513 | PRKD1 log2FC (Gene 5587): 0.547 | PRKCQ log2FC (Gene 5588): 0.186 | PRKCZ log2FC (Gene 5590): 0.565 | PRKDC log2FC (Gene 5591): 0.275 | MAPK3 log2FC (Gene 5595): -0.116 | MAPK7 log2FC (Gene 5598): -0.110 | MAP2K6 log2FC (Gene 5608): 0.357 | PRODH log2FC (Gene 5625): -0.118 | LGMN log2FC (Gene 5641): -0.107 | PSEN1 log2FC (Gene 5663): 0.372 | PSEN2 log2FC (Gene 5664): -0.390 | PSMA2 log2FC (Gene 5683): 0.170 | PSMA3 log2FC (Gene 5684): 0.144 | PSMA4 log2FC (Gene 5685): 0.470 | PSMA6 log2FC (Gene 5687): 0.068 | PSMB1 log2FC (Gene 5689): 0.009 | PSMB2 log2FC (Gene 5690): -0.432 | PSMB4 log2FC (Gene 5692): 0.171 | PSMB5 log2FC (Gene 5693): -0.219 | PSMB6 log2FC (Gene 5694): -0.080 | PSMB9 log2FC (Gene 5698): -0.100 | PSMB10 log2FC (Gene 5699): -0.116 | PSMC1 log2FC (Gene 5700): -0.009 | PSMC2 log2FC (Gene 5701): 0.279 | PSMC3 log2FC (Gene 5702): -0.185 | PSMC5 log2FC (Gene 5705): -0.314 | PSMC6 log2FC (Gene 5706): 0.515 | PSMD1 log2FC (Gene 5707): 0.029 | PSMD3 log2FC (Gene 5709): -0.074 | PSMD4 log2FC (Gene 5710): -0.036 | PSMD5 log2FC (Gene 5711): 0.189 | PSMD7 log2FC (Gene 5713): 0.00364 | PSMD8 log2FC (Gene 5714): -0.122 | PSMD9 log2FC (Gene 5715): -0.396 | PSMD10 log2FC (Gene 5716): -0.344 | PSMD11 log2FC (Gene 5717): -0.327 | PSMD12 log2FC (Gene 5718): -0.768 | PSME1 log2FC (Gene 5720): 0.313 | PTEN log2FC (Gene 5728): 0.958 | PTGFR log2FC (Gene 5737): -0.038 | PTGIS log2FC (Gene 5740): -0.013 | PTH log2FC (Gene 5741): -0.180 | PTGS2 log2FC (Gene 5743): -0.053 | PTK2 log2FC (Gene 5747): 0.040 | PTPN6 log2FC (Gene 5777): 0.257 | PTPRC log2FC (Gene 5788): -0.026 | PTPRH log2FC (Gene 5794): 0.545 | RAC1 log2FC (Gene 5879): -0.226 | RAD9A log2FC (Gene 5883): 0.679 | RAD21 log2FC (Gene 5885): 0.829 | RAG1 log2FC (Gene 5896): 0.688 | RALB log2FC (Gene 5899): 0.076 | RARA log2FC (Gene 5914): -0.310 | RARG log2FC (Gene 5916): -0.122 | RASA1 log2FC (Gene 5921): 0.472 | RASGRF2 log2FC (Gene 5924): 0.069 | RB1 log2FC (Gene 5925): 0.674 | RELA log2FC (Gene 5970): -0.351 | DPF2 log2FC (Gene 5977): 0.525 | REST log2FC (Gene 5978): 0.317 | ROBO1 log2FC (Gene 6091): 0.307 | ROBO2 log2FC (Gene 6092): 0.013 | ROCK1 log2FC (Gene 6093): 0.642 | RPS3A log2FC (Gene 6189): 0.496 | RPS6 log2FC (Gene 6194): 0.259 | RPS6KA1 log2FC (Gene 6195): -0.106 | RPS6KA3 log2FC (Gene 6197): 0.273 | RPS6KB1 log2FC (Gene 6198): 0.247 | RPS27A log2FC (Gene 6233): 0.447 | RTKN log2FC (Gene 6242): -0.055 | SORT1 log2FC (Gene 6272): 0.382 | S100A8 log2FC (Gene 6279): -0.346 | S100B log2FC (Gene 6285): -0.112 | SATB1 log2FC (Gene 6304): 0.836 | SCT log2FC (Gene 6343): -0.026 | CCL2 log2FC (Gene 6347): -0.193 | CCL3 log2FC (Gene 6348): -0.075 | CCL5 log2FC (Gene 6352): 0.070 | CCL21 log2FC (Gene 6366): -0.020 | CX3CL1 log2FC (Gene 6376): -0.245 | CXCL12 log2FC (Gene 6387): -0.262 | MAP2K4 log2FC (Gene 6416): -0.057 | SET log2FC (Gene 6418): 0.155 | SFRP1 log2FC (Gene 6422): 0.243 | SFRP2 log2FC (Gene 6423): -0.008 | SFRP4 log2FC (Gene 6424): 0.079 | SFRP5 log2FC (Gene 6425): -0.036 | ITSN1 log2FC (Gene 6453): 0.185 | SHB log2FC (Gene 6461): -0.563 | SHH log2FC (Gene 6469): -0.168 | SIAH1 log2FC (Gene 6477): 0.170 | SIAH2 log2FC (Gene 6478): -0.479 | STIL log2FC (Gene 6491): 0.014 | SIX1 log2FC (Gene 6495): -0.700 | SKI log2FC (Gene 6497): -0.565 | SLC9A1 log2FC (Gene 6548): -0.632 | SLIT3 log2FC (Gene 6586): -0.267 | SNAI2 log2FC (Gene 6591): 0.040 | SMO log2FC (Gene 6608): 0.037 | SMPD1 log2FC (Gene 6609): 0.629 | SMPD2 log2FC (Gene 6610): -0.222 | SIGLEC1 log2FC (Gene 6614): -0.395 | SNAI1 log2FC (Gene 6615): -0.868 | SNCB log2FC (Gene 6620): -0.584 | SNCA log2FC (Gene 6622): -0.028 | SOD2 log2FC (Gene 6648): 0.190 | SON log2FC (Gene 6651): -0.153 | SOX2 log2FC (Gene 6657): 0.228 | SOX4 log2FC (Gene 6659): 0.369 | SOX9 log2FC (Gene 6662): -2.014 | SOX10 log2FC (Gene 6663): -0.037 | SP100 log2FC (Gene 6672): 0.688 | SPI1 log2FC (Gene 6688): -0.418 | SPN log2FC (Gene 6693): 0.011 | SRC log2FC (Gene 6714): -0.352 | SRPK2 log2FC (Gene 6733): 0.776 | SST log2FC (Gene 6750): 0.576 | SSTR3 log2FC (Gene 6753): -0.180 | STAR log2FC (Gene 6770): -0.178 | STAT1 log2FC (Gene 6772): 0.221 | STAT5A log2FC (Gene 6776): 0.392 | STAT5B log2FC (Gene 6777): 0.109 | STK4 log2FC (Gene 6789): -0.017 | STK11 log2FC (Gene 6794): 0.00114 | STXBP1 log2FC (Gene 6812): -0.400 | SUPV3L1 log2FC (Gene 6832): 0.284 | ADAM17 log2FC (Gene 6868): 0.527 | TAF9 log2FC (Gene 6880): 0.095 | MAP3K7 log2FC (Gene 6885): 0.00173
